In data set [1] the test system is human nasopharyngeal epidermoid carcinoma cell line (KB). The experiment in a line: In vitro Neutral Red cytotoxicity assay, KB. The conditions noted are these: 72 h; for IC50: read-out: Cytotoxicity (IC50) KB. It is filed as cell-based. From the text:
(§1) No effect due to the DMSO was observed. Doxorubicin was used as the positive control. The well containing untreated cells was the negative control.
(§2) Cytotoxicity of each sample is expressed as IC50 value.

In data set [2] the test system is non-cancer human fibroblast cell line (MRC-5). The data set can be described thus: In vitro Neutral Red cytotoxicity assay, MRC-5. It is filed as cell-based. The conditions noted are these: MRC-5 cells, 72 h.
From the text: as §1, §2

In data set [3] the test system is human lung carcinoma cell line (A549). The data set can be described thus: In vitro Neutral Red cytotoxicity assay, A549. The conditions noted are these: for IC50: read-out: Cytotoxicity (IC50) A549. Here is the method: The in vitro cytotoxicity assay was carried out using a Neutral Red cytotoxicity assay as previously described by Borenfreund and Puerner with some modifications; this test determines the accumulation of the Neutral Red dye in the lysosomes of viable and uninjured cells.
Human nasopharyngeal epidermoid carcinoma cell line (KB), human cervical carcinoma cell line (CasKi), human colon carcinoma cell line (HCT 116), human hormone-dependent breast carcinoma cell line (MCF7), human lung carcinoma cell line (A549) and non-cancer human fibroblast cell line (MRC-5) were purchased from the American Tissue Culture Collection (ATCC, USA). KB cells were maintained in Medium 199 (Sigma), CasKi, A549 and MCF7 cells in RPMI 1640 medium (Sigma), HCT 116 in McCOY’S 5A Medium (Sigma) and MRC-5 cells in EMEM (Eagle Minimum Essential Medium) (Sigma), supplemented with 10% foetal bovine serum (FBS, PAA Lab, Austria), 100 µg/mL penicillin or streptomycin (PAA Lab, Austria) and 50 µg/mL of fungizone (PAA Lab, Austria). The cells were cultured in a 5% CO2 incubator (Shel Lab water-jacketed) kept at 37°C in a humidified atmosphere.
The Neutral Red cytotoxicity assay is based on the initial protocol described by Borenfreund and Puerner with some modifications. Briefly, the cells (1x10^4/well) were seeded in 96-well microtiter plates (Nunc) and allowed to grow for 24 hours before treatment. After 24 hours of incubation, the cells were treated with six different concentrations (0.1-100 µg/mL) of test compounds, in three replicates. The plates were further incubated for 72 h at 37°C in a 5% CO2 incubator. A stock solution was initially obtained by dissolving the test compounds in DMSO. Further dilution to different tested concentrations were then carried out ensuring that the final concentration of DMSO in the test and control wells was not in excess of 1% (v/v). […] The well containing untreated cells was the negative control. At the end of the incubation period, the media were replaced with medium containing 50 µg/mL of Neutral Red. The plates were incubated for another 3 hours to allow for uptake of the vital dye into the lysosomes of viable and […] cells. After the incubation period, the media were removed and cells were washed with the neutral red washing solution. The dye was eluted from the cells by adding 200 µL of Neutral Red resorb solution and incubated for 30 minutes at room temperature with rapid agitation on a microtiter plate shaker. Dye absorbance was measured at 540 nm using a spectrophotometer ELISA plate reader. The average data from triplicates were expressed in terms of killing percentage relative to negative control. The percentage of inhibition (%) of each of the test samples was calculated according to the following formula: [drawing 1] where OD control: Optical Density of negative control; OD sample: Optical Density of sample
Cytotoxicity of each sample is expressed as IC50 value. The IC50 value is the concentration of test compounds that cause 50 % inhibition or cell death, averaged from the three experiments, and was obtained by plotting the percentage inhibition versus concentration of test compounds. […] However, we recognized that whether an IC50 value corresponds to a significant or non-significant cytotoxicity depends on the sensitivity of the cell line.

For data set [4], the system named is human colon carcinoma cell line (HCT 116). The data set can be described thus: In vitro Neutral Red cytotoxicity assay, HCT 116. In kind it is cell-based. The conditions noted are these: for IC50: read-out: Cytotoxicity (IC50) HCT 116.
From the text: as §1, §2

For data set [5], the system named is human hormone-dependent breast carcinoma cell line (MCF7). The experiment in a line: In vitro Neutral Red cytotoxicity assay, MCF7. The conditions noted are these: for IC50: read-out: Cytotoxicity (IC50) MCF7. In kind it is cell-based.
From the text: The well containing untreated cells was the negative control.
as §2

Data set [6] deals with human cervical carcinoma cell line (CasKi). The experiment in a line: In vitro Neutral Red cytotoxicity assay, CasKi. It is filed as cell-based. The conditions noted are these: 72 h; for IC50: read-out: Cytotoxicity (IC50) CasKi.
From the text: as §1, §2

The nature of data set [7]: In vitro Neutral Red cytotoxicity assay, MRC-5. The conditions noted are these: human. It is filed as cell-based, human.
From the text: as §1, §2

Where [8] appears, read: Homo sapiens, KB cells, Neutral Red.
Where [9] appears, read: Homo sapiens, KB cells, Neutral Red, value in parentheses.
Setting [10] is: MRC-5 cells (non-cancer fibroblast cell line).
[11] abbreviates: MRC-5 cells (non-cancer fibroblast cell line), value in parentheses.
[12] abbreviates: Homo sapiens, HCT 116 cells, 72 h, Neutral Red.
The mark [13] stands for this setting: Homo sapiens, HCT 116 cells, 72 h, Neutral Red, value in parentheses.
Where [14] appears, read: Homo sapiens, MCF7 cells, 72 h, Neutral Red.
Where [15] appears, read: Homo sapiens, MCF7 cells, 72 h, Neutral Red, value in parentheses.
Setting [16] is: Homo sapiens, Ca-Ski, CasKi cells, Neutral Red.
The mark [17] stands for this setting: Homo sapiens, Ca-Ski, CasKi cells, Neutral Red, value in parentheses.

Where “and” joins values, the source holds several entries; their conditions need not be identical. Identical values can stand only once. Like-named read-outs stand apart in the source and are kept apart here.

Usually IC50 stands for the concentration at which inhibition is half-maximal. Take phytol [Phytol (7)]: the “Cytotoxicity (IC50) KB” value in data set [1] (KB cells, Neutral Red) was 7.1 µg/mL. Besides, the IC50 in data set [1] (KB cells, Neutral Red, value in parentheses) is 24 µM; in data set [2] (value in parentheses), 251 µM; in data set [3] (A549 cells, 72 h, Neutral Red, value in parentheses) it was 105 µM; in data set [4] (HCT 116 cells, 72 h, Neutral Red, value in parentheses), 338 µM; in data set [5] (MCF7 cells, 72 h, Neutral Red, value in parentheses), 115 µM; in data set [6] (CasKi cells, Neutral Red, value in parentheses) it was 60.8 µM. For the same compound, the “Cytotoxicity (IC50) MRC-5” value in data set [2] is given as 74.3 µg/mL. The “Cytotoxicity (IC50) A549” value in data set [3] (A549 cells, 72 h, Neutral Red) is listed as 31 µg/mL. Also, the “Cytotoxicity (IC50) HCT 116” value in data set [4] (HCT 116 cells, 72 h, Neutral Red) came to 100 µg/mL. In data set [5] (MCF7 cells, 72 h, Neutral Red), the “Cytotoxicity (IC50) MCF7” value is recorded as 34 µg/mL. Further, the “Cytotoxicity (IC50) CasKi” value in data set [6] (CasKi cells, Neutral Red) is 18 µg/mL.
`CC1(C)CCCC2(C)OC(=O)C=C12` (stereo not shown) [Dihydroactinidiolide (1), Dihydroactinidiolide]: the IC50 in data set [1] (setting [8]) is 6.7 µg/mL; in data set [1] (setting [9]), 37.2 µM; in data set [3] (Homo sapiens, A549, 72 h) it was 97 µg/mL and 539 µM; in data set [4] (setting [12]) it was 5 µg/mL; in data set [4] (setting [13]), 27.8 µM; in data set [5] (setting [14]) it was 30 µg/mL. For the same compound, the IC50 in data set [5] (setting [15]) is 167 µM; in data set [6] (setting [16]), 40 µg/mL; in data set [6] (setting [17]), 222 µM. For the same compound, the figures for the IC50 at 72 h in data set [7] (setting [10]) and in data set [7] (setting [11]) were 91.3 µg/mL and 507 µM, respectively.
In the case of `CC(C)(C)c1ccc(O)c(C(C)(C)C)c1` [2,4-di tert butylphenol (5), 2,4-di-tert-butylphenol], the IC50 in data set [1] (setting [8]) is 0.81 µg/mL; in data set [1] (setting [9]), 3.93 µM; in data set [3] (Homo sapiens, A549, 72 h), 6 µg/mL and 29.1 µM; in data set [4] (setting [12]) it was 29 µg/mL; in data set [4] (setting [13]) it was 141 µM; in data set [5] (setting [14]), 5.75 µg/mL. In addition, the results for the IC50 in data set [5] (setting [15]), in data set [6] (setting [16]) and in data set [6] (setting [17]) were 27.9 µM, 4.5 µg/mL and 21.8 µM, respectively. For the same compound, the IC50 at 72 h came to 20 µg/mL in data set [7] (setting [10]) and 97.1 µM in data set [7] (setting [11]).
For the compound `Cc1c(C)c2c(c(C)c1O)CC[C@@](C)(CCC[C@H](C)CCC[C@H](C)CCCC(C)C)O2` [α-tocopherol (6), α-tocopherol], the 50% inhibitory concentration (IC50) is 8 µg/mL in data set [1] (setting [8]); 18.6 µM in data set [1] (setting [9]); 6 µg/mL and 13.9 µM in data set [3] (Homo sapiens, A549, 72 h); 31 µg/mL in data set [4] (setting [12]); 72.1 µM in data set [4] (setting [13]); 7.5 µg/mL in data set [5] (setting [14]). Besides, the results for the IC50 in data set [5] (setting [15]), in data set [6] (setting [16]) and in data set [6] (setting [17]) were 17.4 µM, 6 µg/mL and 14 µM, respectively. For the same compound, the IC50 at 72 h in data set [7] (setting [10]) amounted to 30.5 µg/mL; in data set [7] (setting [11]), 70.9 µM.
Regarding `COc1cccc2c1C(=O)c1c(O)c3c(c(O)c1C2=O)C[C@@](O)(C(=O)CO)C[C@@H]3O[C@H]1C[C@H](N)[C@H](O)[C@H](C)O1` [Doxorubicin, reference compound], the IC50 in data set [1] (setting [8]) was 0.013 µg/mL; in data set [1] (setting [9]), 0.023 µM; in data set [3] (Homo sapiens, A549, 72 h), 0.22 µg/mL and 401 nM; in data set [4] (setting [12]), 0.36 µg/mL; in data set [4] (setting [13]) it was 0.663 µM; in data set [6] (setting [16]), 0.006 µg/mL. Further, the half-maximal inhibitory concentration (IC50) in data set [6] (setting [17]) turned out to be 0.011 µM. In addition, the IC50 at 72 h was 0.55 µg/mL in data set [7] (setting [10]) and 1.01 µM in data set [7] (setting [11]).
On to `CC[C@H](CC[C@@H](C)[C@H]1CC[C@H]2[C@@H]3CC=C4C[C@@H](O)CC[C@]4(C)[C@H]3CC[C@]12C)C(C)C` [β -sitosterol (4), β-sitosterol], for which the IC50 in data set [1] (Homo sapiens, KB) is > 100 µg/mL and > 242 µM; in data set [3] (Homo sapiens, A549, 72 h), 78 µg/mL and 188 µM; in data set [4] (Homo sapiens, HCT-116, 72 h), > 100 µg/mL and > 242 µM; in data set [5] (Homo sapiens, MCF7, 72 h), 72 µg/mL and 174 µM; in data set [6] (Homo sapiens, Ca-Ski), 62 µg/mL and 150 µM. The IC50 at 72 h in data set [7] (MRC-5 cells) is greater than 100 µg/mL; in data set [7] (MRC-5 cells, value in parentheses) it was greater than 242 µM.

The values above are taken from PMC6254274, “Cytotoxic Components of Pereskia bleo (Kunth) DC. (Cactaceae) Leaves” (Molecules, 2009).
